Measured values reported in patent US6214374A, “Compositions, methods and devices for the transdermal delivery of drugs” (priority 1996, dated 2001).
Where two headings read alike, the source gives them in different places.

Columns and labels:
[1] = Transdermal penetration of progesterone: oleic acid, myristic acid and butylurea enhancers; type: in vitro ADME, human
Source text: Excised full-thickness human skin was obtained from elective surgery, (e.g., breast reductions) or occasionally, from amputated legs. The tissue was stored in plastic containers at refrigerator temperature until use, at which time the subcutaneous fat and connective tissue were carefully trimmed off. Skin specimen thickness was in the range 1.5-2.0 mm, with characteristic histological features preserved.
Tritium-labeled progesterone was obtained from NEN-DuPont (Wilmington, Del.), with the label at ring positions 1, 2, 6, and 7. It was incorporated in the test compositions in the range 100 to 500 DPM (Disintegration Per Minute) per microgram of progesterone. The labeled progesterone was incorporated at the pre-polymerization stage, i.e., just as water is added to form the hydrogel polymer. Aliquots of the gelling mixtures were added to small amounts of tritiated progesterone in scintillation vials (after the solvent had been evaporated), and stirred briskly with a small spatula. The vials were then tightly capped and stored at room temperature. […]
Rates of transdermal penetration of progesterone were determined for three samples: A-1, A-2, and A-3. […]
Some of the data from these determinations are plotted in FIG. 16, to illustrate how the rates were determined. […]

[2] = in vivo; cited from earlier work
[3] = Progesterone penetration through a dialysis membrane; type: in vitro ADME
Method: Tritium-labeled progesterone was obtained from NEN-DuPont (Wilmington, Del.), with the label at ring positions 1, 2, 6, and 7. It was incorporated in the test compositions in the range 100 to 500 DPM (Disintegration Per Minute) per microgram of progesterone. The labeled progesterone was incorporated at the pre-polymerization stage, i.e., just as water is added to form the hydrogel polymer. Aliquots of the gelling mixtures were added to small amounts of tritiated progesterone in scintillation vials (after the solvent had been evaporated), and stirred briskly with a small spatula. The vials were then tightly capped and stored at room temperature. Milligram portions of this mixture were then taken from widely-spaced sites from within the vials, rapidly weighed, and dispersed in scintillation cocktail for determination of specific activities.
Transdermal penetration was performed in a single-chamber, solvent-replacement Diffusion Cell, held vertically and inverted (FIG. 13). Half-inch diameter discs of skin to which nylon washers had been cemented with cyanoacrylate were used. The available diffusional area of each skin disc enclosed by the nylon washer was 0.495 cm^2. […]
Thus, penetration of progesterone through a dialysis membrane, which was assumed to be more permeable than the skin, was measured to see how much progesterone could accumulate in the receptor of the diffusion cells. […]

[4] = cited from earlier work
[5] = Intradermal penetration of progesterone by autoradiography
Source text: Therefore, an alternative procedure was used to acquire skin surface biopsies (Marks and Dawber, 1971, Brit. J. Dermatol. 85:117-123). Surface biopsies consist of a sheet of the top 2-3 layers of the stratum corneum, which retain vellus hairs on the underside, along with fragments of the pilosebaceous ducts known as "follicular casts" (Lavker and Leyden, 1979, "Lamellar Inclusions in Follicular Horny Cells: A New Aspect of Abnormal Keratinization," J. Ultrastruct. Res. 69: 362-370). These samples are produced by application of a drop of cyanoacrylate adhesive on a microscope slide to the surface of the skin, and after the adhesive sets, the slide with adhering tissue is carefully peeled off.
Discs of skin were prepared as described in "Methods", for measurement of intradermal penetration, but using much larger washers to provide test sites of about 10 cm2 in area. A test formula containing 20% progesterone (Sample Z) was applied, and uptake into the skin was allowed to proceed for one hour, and for 20 hours. Surface residue was removed at the indicated times, using the rinse/wipe procedure described. Skin surface biopsies were taken from 1 & 20-Hr skin discs, and coated with photographic emulsion (Illford K-2 emulsion, Illford, London), then allowed to develop for 14 days. Rinsing and fixing were done as prescribed by the manufacturer.

[6] = combination of progesterone and estrogen; cited from earlier work
[7] = type: in vitro ADME, human
Method: Transdermal penetration was performed in a single-chamber, solvent-replacement Diffusion Cell, held vertically and inverted (FIG. 13). Half-inch diameter discs of skin to which nylon washers had been cemented with cyanoacrylate were used. The available diffusional area of each skin disc enclosed by the nylon washer was 0.495 cm^2. The cell was assembled from parts of a commercial PVC coupling manufactured by Genova Products, Inc., Davison, Mich. The body of the coupling serves as the receptor chamber. The skin disc (5), kept flat by the nylon washer (6) cemented to its surface, is seated in the bottom end of the chamber, dermal side in contact with the receptor fluid (8). After test material is applied to the skin surface, an O-ring (4) and a flanged PVC washer (2) coated with aluminum foil (3) are positioned under the nylon washer on the skin, and a retaining nut (1) is carefully tightened under all. A small, teflon-covered magnetic stirring button (7) and the receptor fluid are introduced, after which the top end of the coupling is stoppered with another foil-coated flanged washer (9). After assembly, the cell is held in a rack on a magnetic stirrer, in a 32° C. incubator. The magnetic stirring button is used to stir the receptor fluid in the inverted cell, and this button spins in direct contact with the dermal side of the skin. […]

[8] = oral, vaginal or rectal; cited from earlier work
[9] = cited from earlier work; remark: listed apart in the source

SMILES | efficacy in promoting the penetration of progesterone through the skin [1] | amount of progesterone in the breast tissue [2] | increase in progesterone concentration in breast tissue [2] | lag time, dialysis membrane [3] | rate of penetration through dialysis membrane ([3]; about 1.5 hours) | amount penetrated in a 24-hour period ([4]; 24 hours, thin film in vivo, Guy et al.) | penetration rate reported by Guy et al. ([4]; human skin in vivo) | accumulation in follicles vs stratum corneum, autoradiography [5] | distribution of progesterone in the skin, autoradiography [5] | distribution depth within the follicle, autoradiography ([5]; 0.2 mm-long follicular fragment) | mean serum level giving an optimal effect in the treatment of menopause [6] | increase of rate after removal of the epidermis [7] | half life in the body [8] | rate of transdermal penetration in vitro ([9]; 2-pyrrolidone enhancer) | rate of transdermal penetration in vitro ([9]; N-methylformamide enhancer) | rate of transdermal penetration in vitro ([9]; no enhancer, acetone solution)
CCCCNC(N)=O [n-butylurea, butylurea] | clearly the most efficacious of the three |  |  |  |  |  |  |  |  |  |  |  |  |  |  | 
CC(=O)[C@H]1CC[C@H]2[C@@H]3CCC4=CC(=O)CC[C@]4(C)[C@H]3CC[C@]12C [progesterone, pregn-4-ene-3,20-dione] |  | high amounts | five-fold | no lag time | about 30 μg/cm^2 /Hr | about 1.2 μg/cm^2 | 1.2 μg/cm^2 /day | Accumulation in the follicles appeared to be faster than in the stratum corneum | preferential accumulation of progesterone in the pilosebaceous follicles | distributed uniformly to this depth within the lipid-rich interior of the follicle | 2 ng/mL | about 2 fold | about 2.2 hours | 11.4 (+/-4.6) μg/cm^2 /hour | 12.4 (+/-4.4) μg/cm^2 /hour | 0.477 μg/cm^2 /hour
